From PubChem BioAssay (NCI)
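Assay format: 96-well plates, 48-hour exposure. Here, GI50 denotes the concentration required for 50% inhibition of growth. At the TGI there is no net growth.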

What was measured:
Assay in all cases: NCI-60 cell line screen, 48 h
[1] = system: HT29 colon
[2] = system: KM12 colon
[3] = system: RPMI-8226 leukemia
[4] = system: COLO 205 colon
[5] = system: SF-295 CNS
[6] = system: PC-3 prostate
[7] = system: HCT-116 colon
[8] = system: SF-539 CNS
[9] = system: CAKI-1 renal
[10] = system: EKVX NSCLC

Row | Structure (SMILES) | GI50 [1] | TGI [1] | GI50 [2] | TGI [2] | GI50 [3] | TGI [3] | GI50 [4] | TGI [4] | GI50 [5] | TGI [5] | GI50 [6] | TGI [6] | GI50 [7] | TGI [7] | GI50 [8] | TGI [8] | GI50 [9] | TGI [9] | GI50 [10] | TGI [10]
1 | O=C(Nc1ccc(F)cc1F)c1cc(Br)ccc1O | 3.53 µM | > 100 µM | 2.99 µM | 10.1 µM | 1.69 µM | 5.29 µM | 3.75 µM | 13.8 µM | 1.9 µM | 3.76 µM | 2.45 µM | 8.35 µM | 2.47 µM | 8.45 µM | 2.68 µM | 10.9 µM | 1.76 µM | 6.66 µM | 2.23 µM | 9.73 µM
2 | O=S(=O)(c1ccc(N=C2NN=C(c3c[nH]c4ccccc34)CS2)cc1)N1CCOCC1 | 4.48 µM | > 100 µM | 7.13 µM | > 100 µM | 3.72 µM | 76.9 µM | 14.7 µM | > 100 µM |  |  | 10.3 µM | > 100 µM | 7.35 µM | > 100 µM | 27.7 µM | > 100 µM | 78.1 µM | > 100 µM | 5.76 µM | > 100 µM
3 | COc1ccc(-c2nc3ncccn3c2/C=C/C(=O)c2cc(OC)c(OC)c(OC)c2)cc1 | 2.19 µM | 4.38 µM | 1.61 µM | 3.04 µM | 2.21 µM | > 100 µM | 1.7 µM | 3.07 µM | 2.39 µM | 4.83 µM | 4.32 µM | 53.2 µM | 1.17 µM | 2.39 µM | 1.36 µM | 2.95 µM | 1.58 µM | 5.06 µM | 1.61 µM | 6.06 µM
4 | COc1ccc2c(c1)OC1=C(C(=O)OC1)C2c1cc(OC)c(OC)c(OC)c1 (configuration not stated) | 0.345 µM | > 100 µM | 0.396 µM | > 89.6 µM | 0.514 µM | > 100 µM | 0.312 µM | 0.974 µM | 0.279 µM | > 100 µM | 0.391 µM | > 100 µM | 0.535 µM | > 100 µM |  |  |  |  |  | > 100 µM
5 | C=C(C)CN(CC#N)CC(=C)C |  | > 100 µM |  | > 100 µM |  | > 100 µM |  | > 100 µM |  | > 100 µM |  | > 100 µM |  | > 100 µM |  |  |  | > 100 µM |  | > 100 µM
6 | Cc1ccc(-c2nc(N)nc3c2nnn3Cc2cccc(CO[C@H]3CCOC3)n2)o1 | > 100 µM | > 100 µM | > 100 µM | > 100 µM | > 100 µM | > 100 µM |  |  | > 100 µM | > 100 µM | > 100 µM | > 100 µM | > 100 µM | > 100 µM | > 100 µM | > 100 µM | > 100 µM | > 100 µM | > 100 µM | > 100 µM
7 | Nc1nc(=S)[nH]c(C(=O)Nc2ccc(Cl)c(Cl)c2)c1-c1ccc(Cl)cc1 |  | > 100 µM |  | > 100 µM |  | > 100 µM |  | > 100 µM |  | > 100 µM |  |  |  | > 100 µM |  | > 100 µM |  | > 100 µM |  | > 100 µM
8 | O=C1NC(=S)NC(=O)C1=Cc1cccc2cc3ccccc3cc12 |  | 3.74 µM |  | 4.08 µM |  |  |  | 3.7 µM |  | 7.19 µM |  | 3.3 µM |  | 3.74 µM |  | 3.1 µM |  | 4.15 µM |  | 8.9 µM
9 | COc1ccc2cc3[n+](cc2c1OC)CCc1cc(O)c(O)cc1-3 |  | > 100 µM |  | > 100 µM |  | > 100 µM |  | > 100 µM |  | > 100 µM |  |  |  | > 100 µM |  | > 100 µM |  | > 100 µM |  | > 100 µM
10 | C1CCN(C2OC3C(COC3N3CCCCC3)OC2OC2CCO[C@@H]2N2CCCCC2)CC1 (some centres not stated) |  | > 100 µM |  | > 100 µM |  | > 100 µM |  | > 100 µM |  | > 100 µM |  |  |  | > 100 µM |  | 46.8 µM |  | > 100 µM |  | > 100 µM
11 | O=c1[nH]c2c3ccccc3ccc2c2cc3c(cc12)OCO3 |  | > 100 µM |  | > 100 µM |  | > 100 µM |  | > 100 µM |  | > 100 µM |  |  |  | > 100 µM |  | > 100 µM |  | > 100 µM |  | > 100 µM
12 | O=C(O)CC12C3C4C5C3C1C5C42 (configuration not stated) |  | > 100 µM |  | > 100 µM |  | > 100 µM |  | > 100 µM |  | > 100 µM |  |  |  | > 100 µM |  | > 100 µM |  | > 100 µM |  | > 100 µM
13 | O=CN1N=C(c2ccc(Cl)cc2)CC1c1cccc(Nc2ccnc3cc(Cl)ccc23)c1 (configuration not stated) | 1.28 µM | 7.61 µM | 1.22 µM | 76.5 µM | 0.611 µM | 4.19 µM | 1.43 µM | 4.51 µM | 0.504 µM | 9.75 µM | 1.69 µM | > 100 µM | 1.2 µM | 4.02 µM | 1.69 µM | 5.03 µM |  |  | 1.59 µM | > 100 µM
14 | COC1OC(C)C(O)CC1OS(=O)(=O)c1ccc(C)cc1 (configuration not stated) |  | > 100 µM |  | > 100 µM |  | > 100 µM |  | > 100 µM |  | > 100 µM |  |  |  | > 100 µM |  | > 100 µM |  | > 100 µM |  | > 100 µM
15 | O=C(Nc1ccc(F)cc1)C(=O)C(C1OC(=O)c2ccccc21)[N+](=O)[O-] (configuration not stated) |  | > 100 µM |  | > 100 µM |  | > 100 µM |  | > 100 µM |  | > 100 µM |  |  |  | > 100 µM |  | > 100 µM |  | > 100 µM |  | > 100 µM
16 | C=CCN1C=CC(=O)[C@H](O[Si](C)(C)C(C)(C)C)[C@@H]1/C=C/c1ccccc1 | 5.39 µM | 19 µM | 13.1 µM | 28.7 µM | 13.6 µM | 45.2 µM | 4.39 µM | 16.2 µM | 9.9 µM | 24.9 µM |  |  | 6.96 µM | 19.9 µM | 16 µM | 30.1 µM | 15.7 µM | 32.7 µM | 14 µM | 40.7 µM
17 | Cc1cccc(C)c1NC(=O)CCc1nnc2s/c(=C\c3ccc(Cl)cc3)c(=O)n12 |  | > 100 µM |  | > 100 µM |  | > 100 µM |  | > 100 µM |  | > 100 µM |  |  |  | 57.2 µM |  | > 100 µM |  | > 100 µM |  | > 100 µM
